Source: patent US20220235011A1, “PHTHALAZINONE COMPOUNDS AND USE THEREOF” (ST PHARM CO., LTD., priority 2019, published 2022)

molecular target: T1, Sirt6 (Homo sapiens, UniProt Q8N6T7); assay: Measurement of Sirt6 Activity (CycLex Sirt6 Deacetylase Fluorometric Assay Kit); assay type: biochemical; conditions: compound at 10 μM; fluorescence relative to the group without compound treatment (positive control group)
T1 construct: purchased CycLex CY-1156V2
Procedure: LC-MS (ESI, m/z)=430.1 (M+H^+) Experimental Example 1: Measurement of Sirt6 Activity Compounds having Sirt6 activity were selected using a CycLex Sirt6 Deacetylase Fluorometric Assay Kit (cat. CY-1156V2) manufactured by CycLex.
When a fluorescent-attached acetylated lysine substrate is treated with Sirt6 enzyme, Sirt6 deacetylates the acetylated lysine of the substrate and lysylendopeptidase cleaves the C-terminal peptide bond connected to the lysine, by which fluorescence is emitted. The activity of a compound is calculated by observing the intensity of fluorescence when the compound is treated along with Sirt6 enzyme. When treating the compound, the compound aids in the activity of Sirt6 enzyme, so as to result in stronger fluorescence. Therefore, by calculating the ratio of the stronger fluorescence relative to the fluorescence emitted from the group without compound treatment (i.e., positive control group), relative activity can be calculated.
Activity evaluation was performed according to the following procedure.
The compound whose activity is to be evaluated was prepared by diluting in phosphate-buffered saline (PBS) to 10 times of the desired concentration (e.g., when measuring Sirt6 assay activity at 10 μM, the compound is prepared at a concentration of 100 μM in PBS). 1 μL of a 1 Ox Sirt6 assay buffer, 0.8 μL of 50× fluoro-substrate peptide, 1 μL of nicotinamide adenine dinucleotide (NAD), 1 μL of a developer and 4.2 μL of H2O were mixed to prepare mixtures equal to the number of samples, and 8 μL was dispensed into each Black 384 well. An additional 1 μL of PBS was added to each of a “no enzyme group” and a positive control group, and 1 μL of the compound diluted in PBS was added to an activity evaluation group. Recombinant Sirt6 was 1:8 diluted in a 1×Sirt6 assay buffer, and 1 μL thereof was added to each of the positive control group and the activity evaluation group. 1 μL of the 1×Sirt6 assay buffer was added to the “no enzyme group.” After reacting at room temperature for one hour, results were measured with a fluorescence spectrometer (excitation: 490±10 nm, emission: 530±10 nm) to confirm the presence or absence of Sirt6 activity and measure the intensity of the activity.

T1 sequence (Q8N6T7 whole entry): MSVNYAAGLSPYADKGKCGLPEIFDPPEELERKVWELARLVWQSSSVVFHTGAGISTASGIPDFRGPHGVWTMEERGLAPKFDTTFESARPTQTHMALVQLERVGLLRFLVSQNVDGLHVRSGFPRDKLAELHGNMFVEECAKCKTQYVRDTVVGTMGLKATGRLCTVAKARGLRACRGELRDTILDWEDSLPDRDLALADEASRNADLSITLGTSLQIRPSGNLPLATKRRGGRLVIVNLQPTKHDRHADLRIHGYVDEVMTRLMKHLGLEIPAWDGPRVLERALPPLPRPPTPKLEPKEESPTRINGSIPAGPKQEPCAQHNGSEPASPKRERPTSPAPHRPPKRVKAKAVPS

Row | Compound | Sirt6 Activity (% activity, 10 μM) [% activity]
1 | CCS(=O)(=O)Nc1cccc(-c2nn(Cc3ccccc3)c(=O)c3ccccc23)c1 [Example 61, N-(3-(3-Benzyl-4-oxo-3,4-dihydrophthalazin-1-yl)phenyl)ethanesulfonamide] | 104
2 | CCS(=O)(=O)Nc1cccc(-c2nn(CCc3ccccc3)c(=O)c3ccccc23)c1 [Example 62, N-(3-(4-Oxo-3-phenethyl-3,4-dihydrophthalazin-1-yl)phenyl)ethanesulfonamide] | 111
3 | CCS(=O)(=O)Nc1cccc(-c2nn(Cc3ccc(F)cc3)c(=O)c3ccccc23)c1 [Example 63, N-(3-(3-(4-Fluorobenzyl)-4-oxo-3,4-dihydrophthalazin-1-yl)phenyl)ethanesulfonamide] | 103
4 | CCS(=O)(=O)N(C)c1cccc(-c2nn(-c3ccc(-c4ccccc4)cc3)c(=O)c3ccccc23)c1 [Example 65, N-(3-(3-([1,1′-Biphenyl]-4-yl)-4-oxo-3,4-dihydrophthalazin-1-yl)phenyl)-N-methylethanesulfonamide] | 96
5 | CC(C)S(=O)(=O)Nc1cccc(-c2nn(-c3ccc(F)cc3)c(=O)c3ccccc23)c1 [Example 67, N-(3-(3-(4-Fluorophenyl)-4-oxo-3,4-dihydrophthalazin-1-yl)phenyl)propan-2-sulfonamide] | 166
6 | CCCS(=O)(=O)Nc1cccc(-c2nn(-c3ccc(F)cc3)c(=O)c3ccccc23)c1 [Example 68, N-(3-(3-(4-Fluorophenyl)-4-oxo-3,4-dihydrophthalazin-1-yl)phenyl)propan-1-sulfonamide] | 160
7 | CN(c1cccc(-c2nn(-c3ccc(F)cc3)c(=O)c3ccccc23)c1)S(C)(=O)=O [Example 69, N-(3-(3-(4-Fluorophenyl)-4-oxo-3,4-dihydrophthalazin-1-yl)phenyl)-N-methylmethane Sulfonamide] | 209
8 | CCS(=O)(=O)N(C)c1cccc(-c2nn(-c3ccc(F)cc3)c(=O)c3ccccc23)c1 [Example 70, N-(3-(3-(4-Fluorophenyl)-4-oxo-3,4-dihydrophthalazin-1-yl)phenyl)-N-methylethane Sulfonamide] | 135
9 | O=c1c2ccccc2c(-c2cccc(NS(=O)(=O)C3CC3)c2)nn1-c1ccc(F)cc1 [Example 71, N-(3-(3-(4-Fluorophenyl)-4-oxo-3,4-dihydrophthalazin-1-yl)phenyl)cyclopropane Sulfonamide] | 150
10 | CCCS(=O)(=O)N(C)c1cccc(-c2nn(-c3ccc(F)cc3)c(=O)c3ccccc23)c1 [Example 72, N-(3-(3-(4-Fluorophenyl)-4-oxo-3,4-dihydrophthalazin-1-yl)phenyl)-N-methylpropan-1-sulfonamide] | 115
11 | CC(C)S(=O)(=O)N(C)c1cccc(-c2nn(-c3ccc(F)cc3)c(=O)c3ccccc23)c1 [Example 73, N-(3-(3-(4-Fluorophenyl)-4-oxo-3,4-dihydrophthalazin-1-yl)phenyl)-N-methylpropan-2-sulfonamide] | 124
12 | CN(c1cccc(-c2nn(-c3ccc(F)cc3)c(=O)c3ccccc23)c1)S(=O)(=O)C1CC1 [Example 74, N-(3-(3-(4-Fluorophenyl)-4-oxo-3,4-dihydrophthalazin-1-yl)phenyl)-N-methylcyclopropane Sulfonamide] | 128
13 | CN(C)S(=O)(=O)N(C)c1cccc(-c2nn(-c3ccc(F)cc3)c(=O)c3ccccc23)c1 [Example 75, N-(3-(3-(4-Fluorophenyl)-4-oxo-3,4-dihydrophthalazin-1-yl)phenyl)-N-methyl-dimethyl Sulfamoylamide] | 139
14 | COC(=O)N(C)S(=O)(=O)N(C)c1cccc(-c2nn(-c3ccc(F)cc3)c(=O)c3ccccc23)c1 [Example 76, Methyl (N-(3-(3-(4-fluorophenyl)-4-oxo-3,4-dihydrophthalazin-1-yl)phenyl)-N-methylsulfamoyl) (methyl)carbamate] | 125
15 | O=c1c2ccccc2c(-c2cccc(NS(=O)(=O)C(F)(F)F)c2)nn1-c1ccc(F)cc1 [Example 77, 1,1,1-Trifluoro-N-(3-(3-(4-fluorophenyl)-4-oxo-3,4-dihydrophthalazin-1-yl)phenyl)methanesulfonamide] | 194
16 | CN(c1cccc(-c2nn(-c3ccc(F)cc3)c(=O)c3ccccc23)c1)S(=O)(=O)C(F)(F)F [Example 78, 1,1,1-Trifluoro-N-(3-(3-(4-fluorophenyl)-4-oxo-3,4-dihydrophthalazin-1-yl)phenyl)-N-methylmethane Sulfonamide] | 122
17 | O=C(NOC1CCCCO1)c1cccc(-c2nn(-c3ccc(F)cc3)c(=O)c3ccccc23)c1 (stereo not drawn) [Example 79, 3-(3-(4-Fluorophenyl)-4-oxo-3,4-dihydrophthalazin-1-yl)-N-((tetrahydro-2H-pyran-2-yl)oxy)benzamide] | 167
18 | CNS(=O)(=O)N(C)c1cccc(-c2nn(-c3ccc(F)cc3)c(=O)c3ccccc23)c1 [Example 80, N-(3-(3-(4-Fluorophenyl)-4-oxo-3,4-dihydrophthalazin-1-yl)phenyl)-N-methyl-methyl Sulfamoylamide] | 216
19 | CCS(=O)(=O)Nc1cncc(-c2nn(-c3ccc(F)cc3)c(=O)c3ccccc23)c1 [Example 82, N-(5-(3-(4-Fluorophenyl)-4-oxo-3,4-dihydrophthalazin-1-yl)pyridin-3-yl)ethanesulfonamide] | 111

Next, values leading:

Row | Sirt6 Activity (% activity, 10 μM) [% activity] | Compound
20 | 131 | O=c1c2ccccc2c(-c2cc(/C=[N+](\[O-])Cc3ccccc3)ccc2F)nn1-c1ccc(F)cc1 [Example 58, (Z)—N-Benzyl-1-(4-fluoro-3-(3-(4-fluorophenyl)-4-oxo-3,4-dihydrophthalazin-1-yl)phenyl) Methanimine Oxide]
21 | 109 | O=c1c2ccccc2c(-c2ccc(Cl)c([N+](=O)[O-])c2)nn1-c1ccc(F)cc1 [Example 59, 4-(4-Chloro-3-nitrophenyl)-2-(4-fluorophenyl)phthalazin-1(2H)-one]
22 | 176 | Nc1cccc(-c2nn(-c3ccc(F)cc3)c(=O)c3ccccc23)c1 [Example 60, 4-(3-Aminophenyl)-2-(4-fluorophenyl) phthalazin-1(2H)-one]
23 | 106 | CCS(=O)(=O)Nc1cccc(-c2nn(-c3ccc(-c4ccccc4)cc3)c(=O)c3ccccc23)c1 [Example 64, N-(3-(3-([1,1′-Biphenyl]-4-yl)-4-oxo-3,4-dihydrophthalazin-1-yl)phenyl)ethane Sulfonamide]
24 | 103 | COC(=O)c1cccc(-c2nn(-c3ccc(F)cc3)c(=O)c3ccccc23)c1 [Example 66, Methyl 3-(3-(4-fluorophenyl)-4-oxo-3,4-dihydrophthalazin-1-yl)benzoate]
25 | 115 | O=c1c2ccccc2c(-c2cccc(-c3nnn[nH]3)c2)nn1-c1ccc(F)cc1 [Example 81, 4-(3-(1H-Tetrazol-5-yl)phenyl)-2-(4-fluorophenyl)phthalazin-1(2H)-one]
26 | 162 | O=C(NO)c1cccc(-c2nn(-c3ccc(F)cc3)c(=O)c3ccccc23)c1 [Example 83, 3-(3-(4-Fluorophenyl)-4-oxo-3,4-dihydrophthalazin-1-yl)-N-hydroxybenzamide]
27 | 123 | C/[N+]([O-])=C/c1cccc(-c2nn(-c3ccc(-c4ccccc4)cc3)c(=O)c3ccccc23)c1 [Example 84, (Z)-1-(3-(3-([1,1′-Biphenyl]-4-yl)-4-oxo-3,4-dihydrophthalazin-1-yl)phenyl)-N-methylmethanimine Oxide]
28 | 118 | CC(C)/[N+]([O-])=C/c1cccc(-c2nn(-c3ccc(-c4ccccc4)cc3)c(=O)c3ccccc23)c1 [Example 85, (Z)-1-(3-(3-([1,1′-Biphenyl]-4-yl)-4-oxo-3,4-dihydrophthalazin-1-yl)phenyl)-N-isopropylmethanimine Oxide]
29 | 196 | CNS(=O)(=O)c1cccc(-c2nn(-c3ccc(F)cc3)c(=O)c3ccccc23)c1 [Example 86, 3-(3-(4-Fluorophenyl)-4-oxo-3,4-dihydrophthalazin-1-yl)-N-methylbenzenesulfonamide]
30 | 226 | CCNS(=O)(=O)c1cccc(-c2nn(-c3ccc(F)cc3)c(=O)c3ccccc23)c1 [Example 87, N-Ethyl-3-(3-(4-fluorophenyl)-4-oxo-3,4-dihydrophthalazin-1-yl)benzenesulfonamide]
